Data: US4661294A, “Biologically active 1-thio derivatives of vitamin D” (The General Hospital Corporation, priority 1985, dated 1987)

Experiments:
[1] = literature reports; cited from earlier work
human fibroblasts = assay: human fibroblast cell proliferation; type: cell-based; details: for effect on the inhibitory effect of 1-alpha,25-dihydroxyvitamin D3 on cell generation: added to the 1-alpha,25-dihydroxy compound
Method: FIG. 4 is a graph comparing the effects of ethanol ( ), ethanol plus 1-alpha,25-dihydroxyvitamin D3 ( ), and 1-beta-thio-25-hydroxyvitamin D3 and 1-alpha,25-dihydroxyvitamin D3 ( ) on human fibroblast cell proliferation.
To confirm this, the effects of various compounds on cell proliferation rates were studied, using human fibroblasts to evaluate activity. Human fibroblasts were prepared as described by Clemens, J. Clin. Endocrinol. Met., 56: 197 (1983). In the study, 2.5×10^5 cells, in quadruplicate, were exposed to (a) 95% ethanol; (b) ethanol plus 1-alpha-25-dihydroxyvitamin D3 ( ); or (c) 1-beta-thio-25-hydroxyvitamin D3 plus 1-alpha, 25-dihydroxyvitamin D3 ( ). As may be seen from FIG. 4, the 1-alpha-25-dihydroxy-vitamin D3 inhibited cell generation by about 30% ( ). […] Further, the 1-thio compound alone had no effect on cell generation time (data not shown).

[2] = target: T1, chick cytosolic receptor (1,25-dihydroxyvitamin receptor site) (Gallus gallus, UniProt O42392); assay: competition with 3H-1,25-dihydroxyvitamin D3 for receptor site (procedure of Eisman et al.); type: binding
T1 sequence (O42392 1-451): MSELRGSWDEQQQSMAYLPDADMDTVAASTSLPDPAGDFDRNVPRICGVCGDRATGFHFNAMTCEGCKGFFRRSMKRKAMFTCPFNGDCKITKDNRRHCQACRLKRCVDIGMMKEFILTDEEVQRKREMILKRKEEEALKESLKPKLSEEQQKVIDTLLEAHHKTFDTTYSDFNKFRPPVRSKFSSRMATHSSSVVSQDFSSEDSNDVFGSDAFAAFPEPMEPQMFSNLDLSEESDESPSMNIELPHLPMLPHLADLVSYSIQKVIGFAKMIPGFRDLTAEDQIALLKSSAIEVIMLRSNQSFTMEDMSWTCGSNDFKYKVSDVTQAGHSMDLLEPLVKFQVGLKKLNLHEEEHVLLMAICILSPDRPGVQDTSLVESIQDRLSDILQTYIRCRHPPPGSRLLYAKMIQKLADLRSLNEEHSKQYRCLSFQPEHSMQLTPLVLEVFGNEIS
Source text: FIG. 3 is a graph comparing the binding characteristics of 1-alpha,25-dihydroxyvitamin D3 ( ) and 1-beta-thio-25-hydroxyvitamin D3 (Δ) using chick cytosolic receptor.
Thus, the 1-beta-thio-25-hydroxyvitamin D3 can be used as a biologically active analogue of the natural compound.

**Q.** For `C=C1/C(=C\C=C2/CCC[C@]3(C)[C@@H]([C@H](C)CCCC(C)(C)F)CC[C@@H]23)C[C@@H](O)C[C@@H]1F` [1-alpha-25-difluoro vitamin D3], which biological activity [1] is on record?
**A.** Its biological activity is “biologically inert”.

**Q.** With `C=C1/C(=C\C=C2/CCC[C@]3(C)[C@@H]([C@H](C)CCCC(C)(C)O)CC[C@@H]23)C[C@@H](O)C[C@@H]1O` [1-alpha-25-dihydroxy-vitamin D3, 1-alpha,25-dihydroxyvitamin D3, reference compound] as the compound, how does the “inhibition of cell generation” value (human fibroblasts; human fibroblasts, 2.5×10^5 cells, FIG. 4) read?
**A.** Its value is “about 30%”.

**Q.** Which “competition with 3H-1,25-dihydroxyvitamin D3 for the receptor site / recognition by the cytosol receptor site” value ([2]; FIG. 3) does the source give for `C=C1/C(=C\C=C2/CCC[C@]3(C)[C@@H]([C@H](C)CCCC(C)(C)O)CC[C@@H]23)C[C@@H](O)C[C@H]1S` [1-beta-thio-25-hydroxyvitamin D3, 1-beta-thio-25-hydroxy vitamin D3] here?
**A.** Its value is “able to compete”.

**Q.** What about the “competition with 3H-1,25-dihydroxyvitamin D3 for the receptor site / recognition by the cytosol receptor site” value ([2]; FIG. 3, listed as 1-beta-thio-hydrovitamin D3) of the same compound?
**A.** The value was “recognized by the cytosol receptor site”.

**Q.** And the “effect on the inhibitory effect of 1-alpha,25-dihydroxyvitamin D3 on cell generation” value (human fibroblasts; human fibroblasts, FIG. 4)?
**A.** The value was “blocked the inhibitory effect”.

**Q.** And the “effect on the inhibitory effect of 1-alpha,25-dihydroxyvitamin D3 on cell generation” value (human fibroblasts; human fibroblasts, FIG. 4, listed as 1-beta-thio-hydrovitamin D3)?
**A.** Its value is “blocks the ability of the 1,25-dihydroxy compound from affecting in vitro fibroblast cell division”.

**Q.** What about the “effect on cell generation time” value (human fibroblasts; compound alone (data not shown)) of the same compound?
**A.** The value was “no effect”.

**Q.** For `C=C1/C(=C\C=C2/CCC[C@]3(C)[C@@H]([C@H](C)CCCC(C)C)CC[C@@H]23)C[C@@H](O)CC1F` (some centres unmarked) [1-fluoro vitamin D3], which biological activity [1] is on record?
**A.** Its biological activity is “possess biological activity”.
